Assays:
MDA-MB-231 = assay: Antiproliferative activity against human MDA-MB-231 cells harboring wild type BRCA and c-Met amplification assessed as inhibition of cell growth incubated for 7 days by MTT assay; format: functional, cell-based; conditions: MDA-MB-231, 168 h
[1] = target: T1, Hepatocyte growth factor receptor (Homo sapiens, UniProt P08581); assay: Inhibition of c-Met (unknown origin) by HTRF method
[2] = target: Poly [ADP-ribose] polymerase 1 (Homo sapiens, UniProt P09874); assay: Inhibition of PARP1 (unknown origin) using histone as substrate incubated for 45 mins by absorbance based analysis
Sequence of Poly [ADP-ribose] polymerase 1 (P09874 whole entry): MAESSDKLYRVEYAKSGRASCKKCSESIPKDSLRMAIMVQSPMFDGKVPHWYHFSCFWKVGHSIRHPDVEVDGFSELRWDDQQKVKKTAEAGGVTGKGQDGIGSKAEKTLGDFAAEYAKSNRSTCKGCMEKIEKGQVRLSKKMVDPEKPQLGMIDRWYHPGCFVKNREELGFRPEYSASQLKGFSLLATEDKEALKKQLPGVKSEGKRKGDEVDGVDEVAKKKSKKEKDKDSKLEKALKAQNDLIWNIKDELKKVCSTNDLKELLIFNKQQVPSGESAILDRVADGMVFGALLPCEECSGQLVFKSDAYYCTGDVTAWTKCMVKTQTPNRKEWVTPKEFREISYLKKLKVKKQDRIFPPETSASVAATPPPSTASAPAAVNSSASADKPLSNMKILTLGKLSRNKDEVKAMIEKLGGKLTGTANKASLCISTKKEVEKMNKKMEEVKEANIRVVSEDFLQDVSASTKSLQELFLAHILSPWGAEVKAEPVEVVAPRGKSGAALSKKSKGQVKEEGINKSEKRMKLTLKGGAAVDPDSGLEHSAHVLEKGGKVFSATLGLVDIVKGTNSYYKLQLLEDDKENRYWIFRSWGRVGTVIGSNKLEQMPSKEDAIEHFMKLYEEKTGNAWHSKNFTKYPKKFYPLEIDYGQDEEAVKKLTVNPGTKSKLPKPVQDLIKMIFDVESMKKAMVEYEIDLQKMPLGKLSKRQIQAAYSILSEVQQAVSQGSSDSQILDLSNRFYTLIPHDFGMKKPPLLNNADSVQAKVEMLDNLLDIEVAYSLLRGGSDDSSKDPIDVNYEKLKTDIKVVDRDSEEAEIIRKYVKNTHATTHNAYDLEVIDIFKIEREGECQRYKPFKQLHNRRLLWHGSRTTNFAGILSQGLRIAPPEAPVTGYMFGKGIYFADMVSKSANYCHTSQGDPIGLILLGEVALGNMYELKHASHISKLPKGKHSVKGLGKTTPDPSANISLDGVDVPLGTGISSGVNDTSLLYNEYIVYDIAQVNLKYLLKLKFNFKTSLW

[3] = target: T1, Hepatocyte growth factor receptor; assay: Inhibition of c-Met (unknown origin) at 100 nM by HTRF method relative to control

T1 sequence (P08581 whole entry): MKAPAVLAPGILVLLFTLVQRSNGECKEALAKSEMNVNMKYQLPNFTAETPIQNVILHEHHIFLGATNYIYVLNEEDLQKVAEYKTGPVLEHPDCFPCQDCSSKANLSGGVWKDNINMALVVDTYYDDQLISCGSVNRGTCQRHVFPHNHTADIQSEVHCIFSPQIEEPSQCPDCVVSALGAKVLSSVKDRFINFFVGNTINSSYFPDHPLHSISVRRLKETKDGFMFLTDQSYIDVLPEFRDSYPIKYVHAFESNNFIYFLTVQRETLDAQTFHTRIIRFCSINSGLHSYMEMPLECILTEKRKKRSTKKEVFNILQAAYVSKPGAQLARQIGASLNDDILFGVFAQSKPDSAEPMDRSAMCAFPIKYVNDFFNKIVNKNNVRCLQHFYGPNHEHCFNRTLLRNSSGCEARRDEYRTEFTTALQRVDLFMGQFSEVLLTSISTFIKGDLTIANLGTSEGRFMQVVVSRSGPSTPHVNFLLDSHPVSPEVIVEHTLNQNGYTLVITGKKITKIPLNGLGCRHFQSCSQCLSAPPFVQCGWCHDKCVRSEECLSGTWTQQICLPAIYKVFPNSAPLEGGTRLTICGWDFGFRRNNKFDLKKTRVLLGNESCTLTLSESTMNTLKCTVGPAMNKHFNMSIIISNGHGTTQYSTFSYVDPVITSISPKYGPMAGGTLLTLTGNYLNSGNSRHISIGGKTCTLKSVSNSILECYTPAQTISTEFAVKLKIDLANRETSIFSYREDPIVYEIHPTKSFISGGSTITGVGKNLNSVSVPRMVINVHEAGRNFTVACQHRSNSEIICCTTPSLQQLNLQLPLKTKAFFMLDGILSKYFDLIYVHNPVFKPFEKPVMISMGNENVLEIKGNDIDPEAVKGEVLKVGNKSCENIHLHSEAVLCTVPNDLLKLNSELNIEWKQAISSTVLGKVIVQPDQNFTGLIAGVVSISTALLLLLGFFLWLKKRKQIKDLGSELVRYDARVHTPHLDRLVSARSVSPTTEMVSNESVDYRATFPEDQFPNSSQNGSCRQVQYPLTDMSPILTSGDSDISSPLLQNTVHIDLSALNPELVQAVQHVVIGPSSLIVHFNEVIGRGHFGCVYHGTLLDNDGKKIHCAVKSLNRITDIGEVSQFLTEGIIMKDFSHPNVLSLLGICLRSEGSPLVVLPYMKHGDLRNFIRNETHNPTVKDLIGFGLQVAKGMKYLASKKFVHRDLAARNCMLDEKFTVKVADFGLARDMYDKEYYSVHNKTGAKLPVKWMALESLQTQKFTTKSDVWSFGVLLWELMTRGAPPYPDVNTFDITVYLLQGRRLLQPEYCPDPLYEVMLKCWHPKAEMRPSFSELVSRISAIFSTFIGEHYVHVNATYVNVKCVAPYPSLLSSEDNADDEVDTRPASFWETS

| Compound | IC50 (MDA-MB-231) [nM] | IC50 [1] [nM] | IC50 [2] [nM] | inhibition [3] [%] |
| --- | --- | --- | --- | --- |
| O=C(c1cc(Cc2n[nH]c(=O)c3ccccc23)ccc1F)N1CCN(c2ccc3c(OCCn4nc(-c5ccccc5)ccc4=O)ccnc3c2)CC1 | 1730 | 37.7 | 1.1 | – |
| Cn1cc(-c2ccc(=O)n(CCOc3ccnc4cc(NC5CCN(C(=O)c6cc(Cc7n[nH]c(=O)c8ccccc78)ccc6F)C5)ccc34)n2)cn1 (stereo unspecified) | – | 42.6 | 5.8 | – |
| Cn1cc(-c2ccc(=O)n(CCOc3ccnc4cc(N5CCC(NC(=O)c6cc(Cc7n[nH]c(=O)c8ccccc78)ccc6F)CC5)ccc34)n2)cn1 | – | 64.2 | 42 | – |
| Cn1cc(-c2ccc(=O)n(CCOc3ccnc4cc(NCCN5CCN(C(=O)c6cc(Cc7n[nH]c(=O)c8ccccc78)ccc6F)CC5)ccc34)n2)cn1 | – | – | 32.2 | < 50 |
| Cn1cc(-c2ccc(=O)n(CCOc3ccnc4cc(OC5CCN(C(=O)c6cc(Cc7n[nH]c(=O)c8ccccc78)ccc6F)CC5)ccc34)n2)cn1 | – | – | 2.1 | < 50 |
| Cn1cc(-c2ccc(=O)n(CCOc3ccnc4cc(N5CCN(C(=O)c6cc(Cc7n[nH]c(=O)c8ccccc78)ccc6F)C(C)(C)C5)ccc34)n2)cn1 | – | – | > 1000 | < 50 |
| Cn1cc(-c2ccc(=O)n(CCOc3ccnc4cc(OCCN5CCN(C(=O)c6cc(Cc7n[nH]c(=O)c8ccccc78)ccc6F)CC5)ccc34)n2)cn1 | 1020 | 18.2 | 3.7 | – |
